From ChEMBL document CHEMBL6153137, “Design, Synthesis, and Biological Evaluation of Novel Orally Available Covalent CDK12/13 Dual Inhibitors for the Treatment of Tumors” (J Med Chem, 2025)
In brackets after ≈: the same amount, converted by molar mass.

How the values were obtained:
[1] = target: Cyclin-dependent kinase 13/Cyclin-K (Homo sapiens, UniProt Q14004); test: Inhibition of CDK13/Cyclin K (unknown origin) using pS7-CTD peptide and ATP as substrate incubated for 120 mins by ADP-Glo reagent based luminescence analysis; assay type: protein-complex assay
Chain of Cyclin-dependent kinase 13/Cyclin-K (Q14004 whole entry): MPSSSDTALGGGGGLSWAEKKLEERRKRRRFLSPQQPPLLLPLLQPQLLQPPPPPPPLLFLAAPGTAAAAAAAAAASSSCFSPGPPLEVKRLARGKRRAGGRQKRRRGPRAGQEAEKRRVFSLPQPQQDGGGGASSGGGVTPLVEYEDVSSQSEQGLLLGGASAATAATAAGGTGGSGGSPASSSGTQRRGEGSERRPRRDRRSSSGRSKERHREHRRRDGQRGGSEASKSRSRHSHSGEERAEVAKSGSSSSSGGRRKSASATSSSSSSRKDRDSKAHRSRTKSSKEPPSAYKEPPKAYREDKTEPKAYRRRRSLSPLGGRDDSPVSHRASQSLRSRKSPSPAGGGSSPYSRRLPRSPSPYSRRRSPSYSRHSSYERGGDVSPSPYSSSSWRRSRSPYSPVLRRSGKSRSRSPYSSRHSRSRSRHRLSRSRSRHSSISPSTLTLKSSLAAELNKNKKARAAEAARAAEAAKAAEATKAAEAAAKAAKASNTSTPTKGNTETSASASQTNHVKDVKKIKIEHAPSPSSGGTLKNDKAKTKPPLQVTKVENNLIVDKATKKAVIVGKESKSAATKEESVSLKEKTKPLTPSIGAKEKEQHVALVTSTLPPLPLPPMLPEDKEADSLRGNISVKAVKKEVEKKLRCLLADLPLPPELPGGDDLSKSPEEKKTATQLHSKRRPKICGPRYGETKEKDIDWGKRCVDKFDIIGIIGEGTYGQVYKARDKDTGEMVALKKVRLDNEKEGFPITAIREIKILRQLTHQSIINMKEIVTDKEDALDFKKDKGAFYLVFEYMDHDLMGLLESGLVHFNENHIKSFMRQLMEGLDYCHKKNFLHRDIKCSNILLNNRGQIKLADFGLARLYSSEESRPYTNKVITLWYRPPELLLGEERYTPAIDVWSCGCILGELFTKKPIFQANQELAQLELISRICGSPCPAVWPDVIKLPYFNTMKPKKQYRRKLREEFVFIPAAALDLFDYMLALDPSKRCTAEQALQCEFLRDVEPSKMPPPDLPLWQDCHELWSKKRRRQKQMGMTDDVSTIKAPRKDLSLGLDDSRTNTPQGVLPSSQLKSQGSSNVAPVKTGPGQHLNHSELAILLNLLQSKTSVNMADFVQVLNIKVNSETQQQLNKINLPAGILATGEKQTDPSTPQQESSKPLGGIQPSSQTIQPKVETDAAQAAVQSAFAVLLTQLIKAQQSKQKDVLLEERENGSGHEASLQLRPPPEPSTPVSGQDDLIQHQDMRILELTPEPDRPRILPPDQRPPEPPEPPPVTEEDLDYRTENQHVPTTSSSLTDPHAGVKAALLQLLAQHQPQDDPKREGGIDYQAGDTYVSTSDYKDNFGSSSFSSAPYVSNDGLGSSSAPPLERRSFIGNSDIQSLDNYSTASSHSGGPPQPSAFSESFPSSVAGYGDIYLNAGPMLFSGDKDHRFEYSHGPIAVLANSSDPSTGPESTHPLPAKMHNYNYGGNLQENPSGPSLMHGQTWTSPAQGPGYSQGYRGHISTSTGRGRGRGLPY
Chain of Cyclin-dependent kinase 13/Cyclin-K (O75909 whole entry, further chain): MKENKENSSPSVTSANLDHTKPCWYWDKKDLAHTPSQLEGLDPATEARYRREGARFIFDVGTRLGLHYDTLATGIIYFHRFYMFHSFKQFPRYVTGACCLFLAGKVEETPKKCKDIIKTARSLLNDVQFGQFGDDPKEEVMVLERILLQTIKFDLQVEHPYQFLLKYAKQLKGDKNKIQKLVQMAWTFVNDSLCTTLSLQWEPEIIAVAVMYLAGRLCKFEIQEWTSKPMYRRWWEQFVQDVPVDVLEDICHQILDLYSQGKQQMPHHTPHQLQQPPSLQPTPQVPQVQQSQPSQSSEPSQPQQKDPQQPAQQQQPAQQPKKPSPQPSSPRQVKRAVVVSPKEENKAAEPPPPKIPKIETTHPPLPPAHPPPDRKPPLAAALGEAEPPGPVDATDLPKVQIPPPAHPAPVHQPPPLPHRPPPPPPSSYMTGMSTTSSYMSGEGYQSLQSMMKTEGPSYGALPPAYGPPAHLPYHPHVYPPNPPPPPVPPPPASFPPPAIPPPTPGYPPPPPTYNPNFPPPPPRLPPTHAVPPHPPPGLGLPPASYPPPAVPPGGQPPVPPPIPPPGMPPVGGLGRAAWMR

CDK12/Cyclin K = CDK12/Cyclin K (Homo sapiens, UniProt Q9NYV4); test: Inhibition of CDK12/Cyclin K (unknown origin) using pS7-CTD peptide and ATP as substrate incubated for 120 mins by ADP-Glo reagent based luminescence analysis; assay type: protein-complex assay
Chain of CDK12/Cyclin K (O75909 whole entry): as the sequence (O75909 whole entry, further chain) above
Chain of CDK12/Cyclin K (Q9NYV4 whole entry): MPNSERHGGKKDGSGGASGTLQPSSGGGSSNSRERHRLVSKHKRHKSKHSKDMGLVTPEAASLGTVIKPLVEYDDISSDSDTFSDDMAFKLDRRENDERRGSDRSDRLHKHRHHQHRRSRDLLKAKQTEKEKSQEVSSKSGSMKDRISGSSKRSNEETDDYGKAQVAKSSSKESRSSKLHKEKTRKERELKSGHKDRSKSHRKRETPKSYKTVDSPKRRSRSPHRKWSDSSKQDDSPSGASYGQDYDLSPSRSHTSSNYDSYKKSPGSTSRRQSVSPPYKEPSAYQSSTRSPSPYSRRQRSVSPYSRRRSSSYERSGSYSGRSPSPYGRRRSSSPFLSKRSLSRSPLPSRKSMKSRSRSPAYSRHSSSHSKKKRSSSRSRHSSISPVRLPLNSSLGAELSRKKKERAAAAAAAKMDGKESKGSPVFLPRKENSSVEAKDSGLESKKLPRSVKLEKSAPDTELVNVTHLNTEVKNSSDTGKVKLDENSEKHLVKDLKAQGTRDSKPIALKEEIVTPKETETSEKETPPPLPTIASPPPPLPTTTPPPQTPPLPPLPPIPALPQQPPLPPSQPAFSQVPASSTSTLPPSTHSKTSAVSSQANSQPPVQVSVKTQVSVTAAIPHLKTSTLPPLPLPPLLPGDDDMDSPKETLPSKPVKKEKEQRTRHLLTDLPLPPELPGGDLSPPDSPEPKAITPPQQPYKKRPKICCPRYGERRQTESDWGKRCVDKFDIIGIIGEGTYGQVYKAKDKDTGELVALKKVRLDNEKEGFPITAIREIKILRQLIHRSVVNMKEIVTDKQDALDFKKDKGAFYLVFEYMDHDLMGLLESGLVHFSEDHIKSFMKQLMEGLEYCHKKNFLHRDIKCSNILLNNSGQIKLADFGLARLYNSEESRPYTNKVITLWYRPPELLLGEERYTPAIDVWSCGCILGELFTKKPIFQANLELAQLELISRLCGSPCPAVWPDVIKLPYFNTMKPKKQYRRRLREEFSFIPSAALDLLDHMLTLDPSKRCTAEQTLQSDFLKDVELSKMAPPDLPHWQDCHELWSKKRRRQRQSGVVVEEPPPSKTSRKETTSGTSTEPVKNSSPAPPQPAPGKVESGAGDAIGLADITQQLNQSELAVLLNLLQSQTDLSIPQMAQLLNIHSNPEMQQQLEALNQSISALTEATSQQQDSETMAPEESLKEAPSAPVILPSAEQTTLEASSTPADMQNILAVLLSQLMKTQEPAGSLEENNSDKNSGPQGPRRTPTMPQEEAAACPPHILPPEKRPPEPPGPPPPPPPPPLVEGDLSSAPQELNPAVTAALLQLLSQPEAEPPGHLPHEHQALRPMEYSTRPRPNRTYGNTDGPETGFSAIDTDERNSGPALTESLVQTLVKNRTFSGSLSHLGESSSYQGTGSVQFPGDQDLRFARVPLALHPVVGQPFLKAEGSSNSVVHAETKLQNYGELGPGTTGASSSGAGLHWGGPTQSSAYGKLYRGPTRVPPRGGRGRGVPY

[2] = Permeability of the compound in human Caco-2 cells at 2 uM incubated for 2 hrs by LC-MS/MS analysis; assay type: ADME, cell-based; settings: read-out: permeability
SUM149PT = test: Antiproliferative activity against human SUM149PT cells assessed as inhibition of cell growth incubated for 7 days by CellTiter-Glo reagent based luminescence analysis; assay type: functional; settings: 168 h
[3] = GSH reactivity assessed as half life to adduct formation at 0.1 uM by LC-MS/MS analysis; assay type: physicochemical
[4] = GSH reactivity assessed as half life to adduct formation at 1 uM by LC-MS/MS analysis; assay type: physicochemical
[5] = GSH reactivity assessed as half life to adduct formation at 10 uM by LC-MS/MS analysis; assay type: physicochemical
[6] = Volume of distribution at steady state in CD-1 mouse at 1 mg/kg, iv measured for 24 hrs by LC-MS/MS analysis; assay type: ADME, organism-based; settings: in vivo, read-out: Vdss
[7] = Kinetic solubility of the compound in phosphate buffer at pH 7.4 measured after 24 hrs by HPLC-UV analysis; assay type: physicochemical; settings: read-out: Kinetic_solubility
[8] = Protein binding in human plasma assessed as free fraction at 400 uM incubated for 4 hrs by equilibrium dialysis method based LC-MS/MS analysis; assay type: ADME, cell-free
[9] = Protein binding in mouse plasma assessed as free fraction at 400 uM incubated for 4 hrs by equilibrium dialysis method based LC-MS/MS analysis; assay type: ADME, cell-free
[10] = Toxicity against Balb/c mouse xenografted with human SUM149PT cells assessed as reduction in body weight at 20 mg/kg, po administered once daily via gavage for 2 days and measured after second dose; assay type: organism-based; design: scale not given: the % may be the effect or the level left; settings: in vivo, 48 h, time 2 day
[11] = Clearance in CD-1 mouse at 1 mg/kg, iv measured for 24 hrs by LC-MS/MS analysis; assay type: ADME, organism-based; settings: in vivo
[12] = AUC (0 to infinity) in CD-1 mouse at 1 mg/kg, iv by LC-MS/MS analysis; assay type: ADME, organism-based; settings: in vivo
[13] = Half life in CD-1 mouse at 5 mg/kg, po measured for 24 hrs by LC-MS/MS analysis; assay type: ADME, organism-based; settings: in vivo
[14] = Cmax in CD-1 mouse at 5 mg/kg, po measured for 24 hrs by LC-MS/MS analysis; assay type: ADME, organism-based; settings: in vivo
[15] = AUC (0 to infinity) in CD-1 mouse at 5 mg/kg, po by LC-MS/MS analysis; assay type: ADME, organism-based; settings: in vivo
[16] = Oral bioavailability in CD-1 mouse at 5 mg/kg measured for 24 hrs by LC-MS/MS analysis; assay type: ADME, organism-based; settings: in vivo

## C=CC(=O)N1Cc2ccnc(N3CC[C@@H](Nc4ncc(Cl)c(OC)n4)C3)c2C1
[1]
  IC50: 76.1 nM

## C=CC(=O)NC12CC(C(=O)N3CC[C@@H](Nc4ncc(Cl)c(OC)n4)C3)(C1)C2
CDK12/Cyclin K
  IC50: 2410 nM
[1]
  IC50: 2750 nM

## C=CC(=O)N1CC2(CCC(C(=O)N3CC[C@@H](Nc4ncc(Cl)c(OC)n4)C3)CC2)C1
CDK12/Cyclin K
  IC50: 669 nM
[1]
  IC50: 756 nM

## C=CC(=O)N1CCC(C(=O)N2CC[C@@H](Nc3ncc(Cl)c(OC)n3)C2)CC1
CDK12/Cyclin K
  IC50: 2270 nM
[1]
  IC50: 1760 nM

## C=CC(=O)Nc1ccc(C(=O)N2CC[C@@H](Nc3ncc(Cl)c(OC)n3)C2)cc1
[2]
  Papp at 2 h, 2 µM: 2.87 ×10⁻⁶ cm/s
CDK12/Cyclin K
  IC50: 6.9 nM
[1]
  IC50: 9.22 nM
SUM149PT
  IC50: 2.64 nM
[3]
  t1/2: 39.7 min
[4]
  t1/2: 40.2 min
[5]
  t1/2: 43 min
[6]
  Vd: 0.66 L/kg
[7]
  solubility kinetic at 24 h: 48.2 µg/mL (≈ 120 µM)
[8]
  fraction unbound at 4 h, 400 µM: 0.003
[9]
  fraction unbound at 4 h, 400 µM: 0.038
[10]
  Activity: 10%

## C=CC(=O)N1CCc2c(nc(N3CCCC3=O)nc2N2CC[C@@H](Nc3ncc(Cl)c(OC)n3)C2)C1
[1]
  IC50: 198 nM
SUM149PT
  IC50: 457 nM

## C=CC(=O)N1CCc2c(nc(N3CCOCC3)nc2N2CC[C@@H](Nc3ncc(Cl)c(OC)n3)C2)C1
[1]
  IC50: 165 nM
SUM149PT
  IC50: 532 nM

## C=CC(=O)N1CCc2c(ccnc2N2CC[C@@H](Nc3ncc(Cl)c(OC)n3)C2)C1
[1]
  IC50: 107 nM
SUM149PT
  IC50: 317 nM

## C=CC(=O)N1CCc2c(nc(N3CCN(C)C(=O)C3)nc2N2CC[C@@H](Nc3ncc(Cl)c(OC)n3)C2)C1
SUM149PT
  IC50: 276 nM

## C=CC(=O)N1Cc2ncnc(N3CC[C@@H](Nc4ncc(Cl)c(OC)n4)C3)c2C1
[1]
  IC50: 343 nM
SUM149PT
  IC50: 509 nM

## CC#CC(=O)N1CCc2c(ncnc2N2CC[C@@H](Nc3ncc(Cl)c(OC)n3)C2)C1
[1]
  IC50: 235 nM
SUM149PT
  IC50: 226 nM
[3]
  t1/2: 315.5 min
[4]
  t1/2: 324.4 min
[5]
  t1/2: 379.4 min
[11]
  clearance: 179 mL/min/kg
[6]
  Vd: 0.35 L/kg
[12]
  AUC(0-inf): 93.8 ng·h/mL
[13]
  half-life: 15 min
[14]
  Cmax: 101 ng/mL
[15]
  AUC(0-inf): 54.7 ng·h/mL
[16]
  bioavailability: 11.2%

## C=CC(=O)N1CCc2c(nc(C)nc2N2CC[C@@H](Nc3ncc(Cl)c(OC)n3)C2)C1
[1]
  IC50: 74.8 nM
SUM149PT
  IC50: 155 nM

## C=CC(=O)[C@H]1CC[C@H](C(=O)N2CC[C@@H](Nc3ncc(Cl)c(OC)n3)C2)CC1
CDK12/Cyclin K
  IC50: 3740 nM
[1]
  IC50: 2740 nM

## C=CC(=O)N1CCc2c(nc(OC)nc2N2CC[C@@H](Nc3ncc(Cl)c(OC)n3)C2)C1
[1]
  IC50: 95.4 nM
SUM149PT
  IC50: 336 nM
